What all share (test): radioligand binding assay (NIMH PDSP), secondary screen
Assay [1] has as its target T1, dopamine D3 receptor (D3R) (Homo sapiens, UniProt P35462).
T1 construct: gene DRD3

Assay [2] deals with T2, dopamine transporter (DAT) (Homo sapiens, UniProt Q01959).
T2 construct: gene SLC6A3

Assay [3] deals with T3, kappa opioid receptor (KOR) (Homo sapiens, UniProt P41145).
T3 construct: gene OPRK1

Data on one compound can be found in article PMC9966578, “Barbamide Displays Affinity for Membrane-Bound Receptors and Impacts Store-Operated Calcium Entry in Mouse Sensory Neurons” (Marine Drugs, 2023).

T1 sequence (P35462 whole entry): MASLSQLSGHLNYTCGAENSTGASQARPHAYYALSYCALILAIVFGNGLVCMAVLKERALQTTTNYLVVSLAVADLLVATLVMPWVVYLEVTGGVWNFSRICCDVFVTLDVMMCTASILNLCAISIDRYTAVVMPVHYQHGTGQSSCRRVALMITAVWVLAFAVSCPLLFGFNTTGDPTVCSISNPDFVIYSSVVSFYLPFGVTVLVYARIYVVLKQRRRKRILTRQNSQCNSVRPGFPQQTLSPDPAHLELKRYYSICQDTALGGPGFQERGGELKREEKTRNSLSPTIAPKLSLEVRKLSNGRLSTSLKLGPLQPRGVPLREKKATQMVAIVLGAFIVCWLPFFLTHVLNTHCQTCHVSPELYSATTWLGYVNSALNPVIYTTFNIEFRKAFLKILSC
T3 sequence (P41145 whole entry): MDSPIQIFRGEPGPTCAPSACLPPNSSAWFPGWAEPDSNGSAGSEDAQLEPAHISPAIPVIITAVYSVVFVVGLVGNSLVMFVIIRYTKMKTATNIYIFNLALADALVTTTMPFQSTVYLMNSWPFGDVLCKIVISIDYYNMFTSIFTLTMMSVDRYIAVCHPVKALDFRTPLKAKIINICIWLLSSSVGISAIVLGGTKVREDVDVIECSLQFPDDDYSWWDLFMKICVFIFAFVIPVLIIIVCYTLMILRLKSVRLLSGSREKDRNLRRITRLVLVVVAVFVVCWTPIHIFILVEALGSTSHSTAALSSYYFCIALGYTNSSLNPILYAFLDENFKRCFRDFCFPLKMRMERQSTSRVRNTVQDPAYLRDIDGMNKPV
T2 sequence (Q01959 whole entry): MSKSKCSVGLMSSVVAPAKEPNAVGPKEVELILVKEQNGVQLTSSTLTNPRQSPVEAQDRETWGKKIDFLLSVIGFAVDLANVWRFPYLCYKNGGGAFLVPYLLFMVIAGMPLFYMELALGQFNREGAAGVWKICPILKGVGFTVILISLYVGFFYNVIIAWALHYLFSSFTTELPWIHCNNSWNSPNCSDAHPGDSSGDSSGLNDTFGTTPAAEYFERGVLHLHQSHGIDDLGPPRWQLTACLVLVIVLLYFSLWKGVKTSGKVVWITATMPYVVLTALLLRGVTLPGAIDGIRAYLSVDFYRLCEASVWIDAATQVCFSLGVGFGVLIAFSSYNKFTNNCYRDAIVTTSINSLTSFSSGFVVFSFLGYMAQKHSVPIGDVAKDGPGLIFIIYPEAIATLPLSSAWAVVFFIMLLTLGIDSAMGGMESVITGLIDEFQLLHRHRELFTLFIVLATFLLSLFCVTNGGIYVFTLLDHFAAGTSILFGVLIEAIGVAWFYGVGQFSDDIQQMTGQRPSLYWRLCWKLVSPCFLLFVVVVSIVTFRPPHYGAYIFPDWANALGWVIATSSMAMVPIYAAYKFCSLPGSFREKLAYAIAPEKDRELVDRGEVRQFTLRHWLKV

One may read the Ki as a measure of affinity in units of concentration, obtained from inhibition or displacement. Low values mean a stronger hold on the target, high ones a looser hold on the target. On to `CO/C(=C/C(=O)N(C)C(Cc1ccccc1)c1nccs1)CC(C)C(Cl)(Cl)Cl` (stereo not drawn) [compound 1, barbamide], for which the inhibitory constant (Ki) was 446 nM in assay [1], 3100 nM in assay [2] and 79.1 nM in assay [3].
